Values of other authors as cited in patent US8389572B2, “Therapeutic delivery of carbon monoxide” (hemoCORM Limited, priority 2006, dated 2013).

Details: disclosed in WO 02/092075 and WO 2004/045598

F[P-](F)(F)(F)(F)F.O=[C]=[Fe](=[C]=O)(=[C]=O)[CH]1C=CC=C1 [[CpFe(CO)3]PF6]
precipitate during release of CO: produced a precipitate during release of CO | solubility (solvent): soluble in dimethylsulphoxide (DMSO)
